In data set [1] the target is T1, MAP/microtubule affinity-regulating kinase 4 (Homo sapiens) (UniProt Q96L34).
T1 sequence (whole entry): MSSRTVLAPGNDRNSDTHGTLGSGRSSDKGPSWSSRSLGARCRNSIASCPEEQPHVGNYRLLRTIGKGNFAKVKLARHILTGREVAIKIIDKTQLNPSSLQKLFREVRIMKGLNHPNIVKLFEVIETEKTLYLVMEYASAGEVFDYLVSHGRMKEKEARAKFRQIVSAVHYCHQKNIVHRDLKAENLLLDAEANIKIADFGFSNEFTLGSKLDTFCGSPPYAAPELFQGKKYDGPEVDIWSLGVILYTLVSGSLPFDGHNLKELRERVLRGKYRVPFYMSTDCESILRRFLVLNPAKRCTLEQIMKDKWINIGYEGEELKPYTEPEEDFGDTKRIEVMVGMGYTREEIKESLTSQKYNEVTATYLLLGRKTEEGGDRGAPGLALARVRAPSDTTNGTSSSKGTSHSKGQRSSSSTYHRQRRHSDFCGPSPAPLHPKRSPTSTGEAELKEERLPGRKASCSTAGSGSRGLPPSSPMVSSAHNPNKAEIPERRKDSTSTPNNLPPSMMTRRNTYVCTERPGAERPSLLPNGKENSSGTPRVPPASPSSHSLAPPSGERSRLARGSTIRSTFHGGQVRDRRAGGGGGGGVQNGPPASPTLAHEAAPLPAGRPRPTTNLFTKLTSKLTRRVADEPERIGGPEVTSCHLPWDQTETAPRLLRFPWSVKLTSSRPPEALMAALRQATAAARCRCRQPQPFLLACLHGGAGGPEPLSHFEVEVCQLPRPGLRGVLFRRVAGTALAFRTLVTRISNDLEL
Put plainly: Selectivity interaction (Kinase panel (KiNativ target engagement assay in Jurkat cells)) EUB0001635a MARK4. The data set is classed as cell-based. To be noted: Selectivity number of off-targets 0.0, Selectivity number of targets 233.0, Source Knowledge https://www.sciencedirect.com/science/article/pii/S2451945619300674?via%3Dihub, at 1 µM.

For data set [2], the system named is Hepatocyte growth factor receptor (Homo sapiens), P08581 [M1250T]. Put plainly: (§1) Selectivity interaction (KinomeScan (DiscoverX)) EUB0000607a MET. To be noted: at 10 µM.
Data set [3] deals with Hepatocyte growth factor receptor (Homo sapiens), P08581 [Y1235D]. The data set is described as §1. Particulars: at 10 µM.
The target of data set [4] is Hepatocyte growth factor receptor (Homo sapiens, UniProt P08581). The description is as §1. Particulars: at 10 µM.
Data set [5] has as its target Interferon-induced, double-stranded RNA-activated protein kinase (Homo sapiens) (UniProt P19525). To be noted: at 10 µM.
For data set [6], the target named is T2, Histone-arginine methyltransferase CARM1 (Homo sapiens) (UniProt Q86X55).
T2 sequence (whole entry): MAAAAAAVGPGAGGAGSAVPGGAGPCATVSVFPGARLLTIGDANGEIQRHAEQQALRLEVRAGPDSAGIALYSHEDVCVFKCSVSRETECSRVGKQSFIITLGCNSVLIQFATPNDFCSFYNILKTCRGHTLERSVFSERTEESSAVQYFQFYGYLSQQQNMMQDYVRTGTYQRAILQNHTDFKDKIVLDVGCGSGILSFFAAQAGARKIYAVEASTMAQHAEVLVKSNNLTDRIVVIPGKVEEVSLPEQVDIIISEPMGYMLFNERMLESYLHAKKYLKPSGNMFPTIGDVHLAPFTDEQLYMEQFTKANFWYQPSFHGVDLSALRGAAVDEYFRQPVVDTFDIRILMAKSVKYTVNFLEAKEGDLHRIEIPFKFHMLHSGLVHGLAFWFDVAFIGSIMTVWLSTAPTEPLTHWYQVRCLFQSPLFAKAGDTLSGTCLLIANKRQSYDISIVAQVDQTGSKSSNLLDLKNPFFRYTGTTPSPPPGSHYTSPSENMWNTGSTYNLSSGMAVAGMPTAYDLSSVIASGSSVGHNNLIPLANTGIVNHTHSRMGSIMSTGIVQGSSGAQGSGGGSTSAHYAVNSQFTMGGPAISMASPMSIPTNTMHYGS
To be noted: KMS-12-PE, at 3 µM.

The target of data set [7] is T3, Serine/threonine-protein kinase 3 (Homo sapiens) (UniProt Q13188).
T3 sequence (whole entry): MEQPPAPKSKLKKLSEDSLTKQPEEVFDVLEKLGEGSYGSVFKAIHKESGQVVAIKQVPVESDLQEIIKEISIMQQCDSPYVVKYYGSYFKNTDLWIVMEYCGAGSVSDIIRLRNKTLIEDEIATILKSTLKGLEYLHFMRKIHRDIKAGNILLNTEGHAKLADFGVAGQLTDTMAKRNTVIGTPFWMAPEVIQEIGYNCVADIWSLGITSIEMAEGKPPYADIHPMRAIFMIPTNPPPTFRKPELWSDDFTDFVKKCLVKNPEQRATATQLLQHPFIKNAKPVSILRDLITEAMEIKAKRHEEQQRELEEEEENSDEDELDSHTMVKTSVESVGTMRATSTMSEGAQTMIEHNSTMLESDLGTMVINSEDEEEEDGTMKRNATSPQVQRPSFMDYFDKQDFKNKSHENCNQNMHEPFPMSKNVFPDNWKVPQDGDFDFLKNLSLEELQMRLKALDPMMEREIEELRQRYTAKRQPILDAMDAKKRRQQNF
Nature of the data set: Selectivity interaction (ActivX KiNativ screen (kinase selectivity in THP-1 cell lysates)) EUB0000639a STK3. It counts as subcellular. To be noted: lysate, at 5 µM.

A further data set addresses Nav1.5 (SCN5A) (Homo sapiens, UniProt Q14524). Nature of the data set: Selectivity interaction (Panel of kinases, GPCRs, ion channels and transporters (enzymatic assay)) EUB0000223bCl SCN5A.
Data set [8] has as its target Cyclin-dependent kinase 16 (Homo sapiens) (UniProt Q00536). Nature of the data set: Selectivity interaction (KinomeScan (DiscoverX)) EUB0000618a CDK16. To be noted: at 10 µM.
For data set [9], the target named is 5'-AMP-activated protein kinase catalytic subunit alpha-2 (Homo sapiens) (UniProt P54646). Put plainly: Selectivity interaction (KinomeScan (DiscoverX)) EUB0000618a PRKAA2. Particulars: at 10 µM.
In data set [10] the target is T4, Serine/threonine-protein kinase Chk1 (Homo sapiens) (UniProt O14757).
T4 sequence (whole entry): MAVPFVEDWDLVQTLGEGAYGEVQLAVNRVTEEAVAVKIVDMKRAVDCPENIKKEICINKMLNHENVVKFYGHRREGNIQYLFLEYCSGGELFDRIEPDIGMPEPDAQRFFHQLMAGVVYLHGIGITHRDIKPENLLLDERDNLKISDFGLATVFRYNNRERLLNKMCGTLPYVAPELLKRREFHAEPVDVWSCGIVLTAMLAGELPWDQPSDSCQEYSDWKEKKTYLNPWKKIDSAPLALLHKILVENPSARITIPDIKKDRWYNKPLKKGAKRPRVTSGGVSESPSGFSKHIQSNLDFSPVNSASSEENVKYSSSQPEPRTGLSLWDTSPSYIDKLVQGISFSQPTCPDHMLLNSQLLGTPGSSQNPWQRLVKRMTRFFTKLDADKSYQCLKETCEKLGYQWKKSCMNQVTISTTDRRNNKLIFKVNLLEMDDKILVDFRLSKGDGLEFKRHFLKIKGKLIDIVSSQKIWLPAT
To be noted: at 10 µM.

From ChEMBL document CHEMBL5465560, “Selectivity Literature for EUbOPEN Chemogenomic Library” (2024) come the findings set out here.

Chain of Interferon-induced, double-stranded RNA-activated protein kinase (Homo sapiens) (P19525 whole entry): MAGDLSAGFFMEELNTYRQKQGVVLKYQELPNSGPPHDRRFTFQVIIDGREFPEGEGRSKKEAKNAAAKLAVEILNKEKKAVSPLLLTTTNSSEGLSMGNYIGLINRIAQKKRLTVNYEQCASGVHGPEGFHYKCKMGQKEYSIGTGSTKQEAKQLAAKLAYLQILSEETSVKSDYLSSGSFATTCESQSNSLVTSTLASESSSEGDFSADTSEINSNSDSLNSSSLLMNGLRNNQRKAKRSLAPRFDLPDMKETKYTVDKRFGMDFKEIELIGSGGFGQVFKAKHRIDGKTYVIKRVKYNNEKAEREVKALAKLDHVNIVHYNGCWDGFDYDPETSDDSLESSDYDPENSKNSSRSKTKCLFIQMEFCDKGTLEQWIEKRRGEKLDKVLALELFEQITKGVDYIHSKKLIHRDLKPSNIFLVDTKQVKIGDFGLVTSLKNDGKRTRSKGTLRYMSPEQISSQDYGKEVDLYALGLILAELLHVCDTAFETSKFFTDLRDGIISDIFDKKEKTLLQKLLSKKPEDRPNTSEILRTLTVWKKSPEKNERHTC
Chain of Nav1.5 (SCN5A) (Q14524 whole entry): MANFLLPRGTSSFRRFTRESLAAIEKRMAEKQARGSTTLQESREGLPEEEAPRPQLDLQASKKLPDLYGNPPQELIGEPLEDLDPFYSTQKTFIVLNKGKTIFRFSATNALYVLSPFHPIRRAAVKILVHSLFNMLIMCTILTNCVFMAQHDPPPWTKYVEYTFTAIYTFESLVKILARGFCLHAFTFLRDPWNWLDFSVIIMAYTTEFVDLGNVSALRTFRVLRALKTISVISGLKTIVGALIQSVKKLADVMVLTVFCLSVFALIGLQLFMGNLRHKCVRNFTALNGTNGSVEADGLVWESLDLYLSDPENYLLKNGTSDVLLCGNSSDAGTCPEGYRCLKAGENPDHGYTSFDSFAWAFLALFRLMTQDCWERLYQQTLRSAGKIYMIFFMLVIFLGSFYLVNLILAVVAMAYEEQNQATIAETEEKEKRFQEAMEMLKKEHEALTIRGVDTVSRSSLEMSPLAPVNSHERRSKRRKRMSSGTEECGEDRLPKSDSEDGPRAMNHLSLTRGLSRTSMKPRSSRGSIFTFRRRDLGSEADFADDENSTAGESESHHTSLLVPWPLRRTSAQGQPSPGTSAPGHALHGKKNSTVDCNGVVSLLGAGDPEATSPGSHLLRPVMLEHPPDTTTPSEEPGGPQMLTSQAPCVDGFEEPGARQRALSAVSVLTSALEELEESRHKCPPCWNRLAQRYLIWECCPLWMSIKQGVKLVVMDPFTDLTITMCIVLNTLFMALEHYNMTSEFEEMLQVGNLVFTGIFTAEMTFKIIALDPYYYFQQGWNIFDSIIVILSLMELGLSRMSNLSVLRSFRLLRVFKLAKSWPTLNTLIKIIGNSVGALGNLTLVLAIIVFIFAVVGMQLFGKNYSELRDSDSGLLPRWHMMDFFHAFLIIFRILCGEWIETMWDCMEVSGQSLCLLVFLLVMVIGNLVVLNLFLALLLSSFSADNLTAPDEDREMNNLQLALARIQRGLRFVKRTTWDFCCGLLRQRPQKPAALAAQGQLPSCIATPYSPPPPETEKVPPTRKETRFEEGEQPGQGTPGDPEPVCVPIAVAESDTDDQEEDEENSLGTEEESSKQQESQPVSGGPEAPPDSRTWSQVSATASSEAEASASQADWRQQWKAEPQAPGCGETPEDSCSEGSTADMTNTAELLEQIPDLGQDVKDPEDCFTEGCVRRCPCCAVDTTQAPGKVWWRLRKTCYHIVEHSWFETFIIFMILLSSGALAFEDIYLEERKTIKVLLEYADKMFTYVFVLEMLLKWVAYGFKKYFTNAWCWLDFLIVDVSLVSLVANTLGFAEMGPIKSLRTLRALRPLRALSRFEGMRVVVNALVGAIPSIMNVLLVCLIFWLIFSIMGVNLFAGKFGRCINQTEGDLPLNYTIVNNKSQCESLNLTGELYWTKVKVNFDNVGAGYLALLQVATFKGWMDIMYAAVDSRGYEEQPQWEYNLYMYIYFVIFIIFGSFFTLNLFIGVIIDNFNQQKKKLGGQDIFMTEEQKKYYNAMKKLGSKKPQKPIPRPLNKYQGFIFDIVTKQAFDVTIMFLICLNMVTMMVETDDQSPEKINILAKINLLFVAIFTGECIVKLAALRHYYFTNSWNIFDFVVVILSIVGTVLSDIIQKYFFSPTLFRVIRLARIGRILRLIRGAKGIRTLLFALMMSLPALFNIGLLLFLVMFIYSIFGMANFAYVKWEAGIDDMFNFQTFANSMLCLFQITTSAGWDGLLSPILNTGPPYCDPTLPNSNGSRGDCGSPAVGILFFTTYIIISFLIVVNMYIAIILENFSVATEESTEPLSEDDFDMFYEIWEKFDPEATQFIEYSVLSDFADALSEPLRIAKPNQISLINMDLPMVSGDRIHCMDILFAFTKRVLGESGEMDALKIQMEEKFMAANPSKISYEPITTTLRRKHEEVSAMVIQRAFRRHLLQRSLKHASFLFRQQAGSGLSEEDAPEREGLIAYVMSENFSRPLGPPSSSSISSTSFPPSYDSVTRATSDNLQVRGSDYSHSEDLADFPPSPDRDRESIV
Chain of Hepatocyte growth factor receptor (Homo sapiens), P08581 [Y1235D] (P08581 whole entry Y1235D): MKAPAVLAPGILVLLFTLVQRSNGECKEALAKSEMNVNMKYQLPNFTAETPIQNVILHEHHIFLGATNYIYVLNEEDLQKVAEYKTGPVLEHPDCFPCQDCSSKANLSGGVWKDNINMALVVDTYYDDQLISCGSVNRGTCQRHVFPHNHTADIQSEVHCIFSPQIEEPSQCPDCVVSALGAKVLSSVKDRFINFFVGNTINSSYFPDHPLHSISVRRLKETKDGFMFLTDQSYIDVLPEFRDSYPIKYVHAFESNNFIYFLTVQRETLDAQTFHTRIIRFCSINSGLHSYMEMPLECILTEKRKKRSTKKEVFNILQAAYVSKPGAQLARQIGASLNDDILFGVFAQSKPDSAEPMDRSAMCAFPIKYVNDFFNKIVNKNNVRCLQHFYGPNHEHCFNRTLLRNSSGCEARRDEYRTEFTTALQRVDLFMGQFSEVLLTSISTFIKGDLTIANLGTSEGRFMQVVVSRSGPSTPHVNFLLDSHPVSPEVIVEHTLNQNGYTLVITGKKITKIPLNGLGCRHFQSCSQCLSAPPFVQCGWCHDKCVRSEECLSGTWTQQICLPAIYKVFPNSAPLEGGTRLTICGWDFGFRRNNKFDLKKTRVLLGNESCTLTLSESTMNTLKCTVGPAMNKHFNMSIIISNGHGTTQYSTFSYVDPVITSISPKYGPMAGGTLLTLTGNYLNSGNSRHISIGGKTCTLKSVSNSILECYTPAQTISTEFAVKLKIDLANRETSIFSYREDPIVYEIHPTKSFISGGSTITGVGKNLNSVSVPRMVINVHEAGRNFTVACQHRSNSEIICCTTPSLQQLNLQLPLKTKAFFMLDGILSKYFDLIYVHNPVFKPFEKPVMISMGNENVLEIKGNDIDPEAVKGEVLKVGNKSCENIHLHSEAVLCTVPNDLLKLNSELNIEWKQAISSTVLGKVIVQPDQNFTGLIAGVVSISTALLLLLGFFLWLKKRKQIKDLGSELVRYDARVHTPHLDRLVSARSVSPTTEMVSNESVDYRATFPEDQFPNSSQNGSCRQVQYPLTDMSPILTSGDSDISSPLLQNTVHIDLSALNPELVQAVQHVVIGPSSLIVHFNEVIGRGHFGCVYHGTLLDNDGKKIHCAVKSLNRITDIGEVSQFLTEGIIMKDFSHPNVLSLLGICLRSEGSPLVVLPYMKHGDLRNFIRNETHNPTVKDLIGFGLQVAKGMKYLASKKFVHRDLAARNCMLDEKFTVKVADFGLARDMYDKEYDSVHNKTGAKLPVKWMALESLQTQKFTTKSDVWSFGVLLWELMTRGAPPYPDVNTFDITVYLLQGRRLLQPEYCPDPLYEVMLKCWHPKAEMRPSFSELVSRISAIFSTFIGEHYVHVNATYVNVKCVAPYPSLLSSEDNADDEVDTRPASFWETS
Chain of Cyclin-dependent kinase 16 (Homo sapiens) (Q00536 whole entry): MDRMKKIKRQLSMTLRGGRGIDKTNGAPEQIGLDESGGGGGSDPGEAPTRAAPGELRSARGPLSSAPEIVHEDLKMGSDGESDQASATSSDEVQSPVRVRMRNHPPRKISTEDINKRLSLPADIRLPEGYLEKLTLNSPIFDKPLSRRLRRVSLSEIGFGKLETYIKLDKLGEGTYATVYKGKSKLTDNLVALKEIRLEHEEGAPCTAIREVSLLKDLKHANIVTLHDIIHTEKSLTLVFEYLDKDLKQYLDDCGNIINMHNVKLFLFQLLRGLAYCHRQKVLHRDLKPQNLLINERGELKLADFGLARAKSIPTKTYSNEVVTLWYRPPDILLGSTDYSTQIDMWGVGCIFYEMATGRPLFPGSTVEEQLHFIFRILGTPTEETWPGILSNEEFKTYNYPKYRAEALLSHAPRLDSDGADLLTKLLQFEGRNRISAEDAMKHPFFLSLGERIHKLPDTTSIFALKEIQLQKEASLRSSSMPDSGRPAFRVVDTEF
Chain of 5'-AMP-activated protein kinase catalytic subunit alpha-2 (Homo sapiens) (P54646 whole entry, looked up): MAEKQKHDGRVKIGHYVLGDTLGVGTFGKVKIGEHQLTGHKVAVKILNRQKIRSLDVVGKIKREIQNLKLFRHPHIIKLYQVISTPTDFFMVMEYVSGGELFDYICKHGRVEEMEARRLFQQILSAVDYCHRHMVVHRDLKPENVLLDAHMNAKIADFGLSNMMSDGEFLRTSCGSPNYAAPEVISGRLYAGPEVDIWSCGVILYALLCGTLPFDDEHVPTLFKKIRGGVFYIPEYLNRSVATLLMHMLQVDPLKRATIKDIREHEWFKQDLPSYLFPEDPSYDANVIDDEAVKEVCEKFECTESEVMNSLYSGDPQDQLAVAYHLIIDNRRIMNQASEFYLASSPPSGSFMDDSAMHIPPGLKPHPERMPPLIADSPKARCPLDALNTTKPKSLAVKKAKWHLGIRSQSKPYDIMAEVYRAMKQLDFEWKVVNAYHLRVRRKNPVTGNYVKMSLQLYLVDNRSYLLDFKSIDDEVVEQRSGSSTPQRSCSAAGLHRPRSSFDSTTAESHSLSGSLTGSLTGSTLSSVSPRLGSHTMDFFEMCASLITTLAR

Take `C=CC(=O)Nc1ccc(C(=O)Nc2[nH]nc3c2CN(C(=O)N[C@H](CN(C)C)c2ccccc2)C3(C)C)cc1`: the % of engagement in [1] was found to be 37%. As to `CNC(=O)Nc1ccc(-c2nc(N3CC4CCC(C3)O4)c3cnn(C4CCC5(CC4)OCCO5)c3n2)cc1`, the % of control stood at 87% in data set [2], 24% in [3] and 93% in data set [4].

`Cc1cc([C@@H](C)Nc2ccccc2C(=O)O)c2nc(N3CCOCC3)cc(=O)n2c1` [AZD-6482]: in data set [5], the % of control was determined as 99%. Take `CNCCN1CCC(c2cc(CN(C)C(=O)c3cccc(Oc4ccccc4)c3)ccn2)CC1`: in data set [6], the % of growth rate is -4.4%. With `CC[C@@H]1[C@H](F)C(=O)N[C@@H]1COc1nccc2cc(C(N)=O)c(OC)cc12` [ZIMLOVISERTIB], the % of inhibition in data set [7] is -19.6%. Regarding `COc1cc(C(=O)N2CC[C@@H](O)[C@@H](N)C2)cc2nc(-c3cc4ccccc4n3CC3CC3)n(C)c12`, the XC50 on Nav1.5 (SCN5A) was 39.8 µM. Consider `O[C@H]1CC[C@H](Nc2ncc3nc(Nc4c(F)cc(F)cc4F)n([C@H]4CCOC4)c3n2)CC1`, for which the % of control in data set [8] and in data set [9] was 100% each time. Regarding `COCC(=O)NC/C=C/c1ccc2ncnc(Nc3ccc(Oc4ccc(C)nc4)c(C)c3)c2c1` [CP-724714], the % of control in data set [10] came to 90%.
